{Fl-O} = fluorescein attached through an O linker; {Fluorescein} = fluorescein label
Experiments:
Assay type in all cases: binding
DNA target 182 = experiment: PNA/DNA hybridization detected by fluorescence polarization, non-complementary target
From the text: (§1) A fluorescein-labeled peptide nucleic acid molecule 202 was used in hybridization experiments with the DNA targets 192 and 182. PNAs are generally commercially available from the Applied Biosystems Division of the Perkin-Elmer Corporation (Foster City, Calif.). The sequence of these molecules is illustrated below. In the case of the PNA molecule, the given sequence illustrates the analogous sequence of a DNA molecule. The sequences of the three molecules are as follows:
(§2) DNA sequence 192 contains 13 bases (shown in bold) that are fully complementary to the PNA probe 202, whereas 182 is a non-complementary oligonucleotide.
(§3) A solution containing 1 μM of PNA 202 in 50 mM HEPES pH 7.5 was mixed with either 5 μM of 192 or 5 μM of 182. The mixtures were left at room temperature for about 10 min. and then placed in the cuvette of a fluorimeter equipped to measure fluorescence polarization. The measurements were carried out using 490 nm for excitation and 520 nm for detection of fluorescence emission. The fluorescence polarization values were recorded first in the absence and then in the presence of poly-L-Lysine hydrobromide, having a molecular weight of approximately 70-100 kD (Sigma Chemicals). The poly-L-Lysine was added from a stock solution in water (approx. 440 μM). The final concentrations of the poly Lysine were 4.4 and 8.8 μM.

DNA target 192 = experiment: PNA/DNA hybridization detected by fluorescence polarization, complementary target
From the text: as §1, §2, §3

DNA 244 = experiment: Single nucleotide substitution detection by fluorescence polarization of PNA probe; conditions: 250 nM probe, about 3 μM poly-L-Lysine, 50 mM HEPES pH 7.5, 100 mM NaCl
From the text: The assay methods were employed to detect differential hybridization of a nucleic acid probe to a perfectly complementary target sequence and a target sequence incorporating a single base variation, e.g., a single nucleotide polymorphism (SNP). In particular, a fluoresceinated PNA probe having a sequence complementary to a subsequence of a target sequence was used to probe the target including the subsequence and a target in which an interior base of the subsequence was substituted for a different base.
The 5′ to 3′ sequences of the PNA probe (PNA 7637)(SEQ ID NO:4), the target DNA sequence (DNA 244) (SEQ. ID NO.5) and single base mismatch target DNA sequence (DNA 245) (SEQ. ID NO.6) were as follows:
The PNA probe 7637 was used at a final concentration of 250 nM, in a reaction volume of 400 μl. The buffer used was 50 mM HEPES pH 7.5, 100 mM NaCl. The solution also contained poly-L-Lysine at about 3 μM. One μl aliquots of the DNA targets 244 and 245 were added iteratively to the PNA solution and the fluorescence polarization (excitation 490, emission 520 nm) was recorded after the addition of each aliquot. The data from this experiment is illustrated in FIG. 22. […] As can also be seen, hybridization plateaued at approximately a […] of target sequence in the perfectly complementary example.

Substance | polarization value (DNA target 182; 1 μM 202 with 5 μM non-complementary 182, without poly-L-Lysine) | polarization value (DNA target 182; 202 with non-complementary 182, in the presence of poly-L-Lysine) | polarization value (DNA target 192; 202 hybrid with complementary 192, in the absence of poly-L-Lysine) | polarization value (DNA target 192; 202 hybrid with complementary 192, in the presence of poly-L-Lysine) | fluorescence polarization, perfectly complementary target vs single base mismatch target (DNA 245) (DNA 244)
5′Fl-O-GTCAAATACTCCA (all peptide nucleic acid (PNA), 5' {Fl-O}) [compound 202, ID NO.1] | 86 mP | 140 mnP | about 100 mP | 229 mP | 
Fluorescein-CCTGTAGCA (all peptide nucleic acid (PNA), 5' {Fluorescein}) [PNA probe 7637] |  |  |  |  | substantially higher levels of fluorescence polarization

Source: patent US6472141B2, “Kinase assays using polycations” (Caliper Technologies Corp., priority 1999, dated 2002)
